Assay results published in article PMC6672008, “Small molecule degraders of the hepatitis C virus protease reduce susceptibility to resistance mutations” (Nature Communications, 2019).
“And” between values parts separate entries of the source, which are not always exact repeats. Equal values may be shown once. “Also recorded” adds a separate entry of the source. Read-outs that look alike come from different tables or passages of the source.

Key:
[1] = test system: HCV-JFH1-ad; assay: microbe, parasite or virus in culture; type: cell-based, hepatitis C virus
[2] = target: HCV NS3-eGFP protein fusion (Hepatitis C virus genotype 2a, UniProt Q99IB8); type: cell-based; settings: for DC50: 4 h treatment; for degradation of HCV NS3 in the transient assay (in words): increasing concentrations
[3] = target: T1, CRBN (Homo sapiens, UniProt Q96SW2); assay: Competitive displacement assay for cellular CRBN engagement (rescue of dBET6-mediated BRD4BD2-eGFP degradation); type: cell-based; settings: co-treated with 100 nM dBET6, 5 h
[4] = Cytotoxicity assay (CellTiter-Glo, 24 h); type: cell-based; settings: human, CC50 (50% loss of viability)
[5] = target: T2, HCV NS3 (Hepatitis C virus genotype 2a, UniProt Q99IB8); type: cell-based; settings: percentage of DMSO-treated control, 1000 nM (legend; picture prints 500nM)
[6] = target: DDB1∆B-CRBN (Homo sapiens, UniProt Q96SW2); assay: CRBN-binding assay (fluorescence polarization, displacement of Atto565-lenalidomide); settings: fluorescence polarization competition
Method: Measurement of compounds binding to CRBN was performed by fluorescence polarization. […] Compounds were dispensed using a D300e Digital Dispenser (HP), normalized to 1% DMSO, and incubated for 60 min at room temperature. The change in fluorescence polarization was monitored using a PHERAstar FS microplate reader (BMG Labtech) for 20 min in 200 s cycles. […]
Increasing concentrations of compounds were titrated to preformed DDB1∆B-CRBN-lenalidomideAtto565 complex. Data are presented as means normalized to DMSO ± standard deviation of n = 4 technical replicates. […]
d Measurement of NS3/4A protease inhibition in vitro. Cell lysates containing the endogenous NS3/4A protease were prepared from cells stably expressing an HCV […]
subgenomic replicon. […]

[7] = target: T2, HCV NS3; type: cell-based; settings: 1000 nM, 4 h
[8] = test system: HCV-NS3-V55A; assay: microbe, parasite or virus in culture; type: cell-based, hepatitis C virus
[9] = test system: HCV-NS3-A156S; assay: microbe, parasite or virus in culture; type: cell-based, hepatitis C virus; settings: for change in antiviral potency, NS3-A156S vs wildtype: ratio of IC50 values
[10] = test system: Huh7.5-SGR cells; assay: Cytotoxicity assay (CellTiter-Glo, 24 h); type: cell-based; settings: read-out: CC50 (50% loss of viability), single experiments, individual experiments
[11] = test system: wildtype HCV-Jc1; assay: microbe, parasite or virus in culture; type: cell-based, hepatitis C virus
[12] = test system: HCV NS3; type: cell-based, hepatitis C virus; settings: 1000 nM, 4 h; selectivity
[13] = target: T1, CRBN; assay: Cellular thermal shift assay for CRBN engagement (HEK293T cells); type: cell-based; settings: 1 h at 37 °C, heated at 61 °C, dose-response
[14] = Hepatitis C virus, Huh7.5, read-out: antiviral IC50 (50% reduction in viral titers), average value reported, Huh7.5, MOI 0.1, treated 24 to 48 h post-infection, average of n ≥ 2 experiments
[15] = Hepatitis C virus, Huh7.5, read-out: antiviral IC50 (50% reduction in viral titers), single experiments, Huh7.5, MOI 0.1, treated 24 to 48 h post-infection, individual experiments
[16] = read-out: antiviral IC50 (50% reduction in viral titers), single experiments, Huh7.5, MOI 0.1, treated 24 to 48 h post-infection, individual experiments
[17] = 500 nM compound + 500 nM lenalidomide, 4 h, Supplementary Fig. 4c
[18] = 500 nM compound + 5000 nM lenalidomide, 4 h, Supplementary Fig. 4c
[19] = 500 nM compound + DMSO, 4 h, Supplementary Fig. 4c
[20] = read-out: NS3-eGFP degradation DC50, average value reported, average of n ≥ 2 independent experiments
[21] = read-out: NS3-eGFP degradation DC50, single experiments, individual experiments (source data)
[22] = average value reported, averaged from n = 2
[23] = single experiments, individual experiments
[24] = Huh7.5 CRBN-/-, HCV-JFH1-ad MOI 0.1, 24 to 48 h post-infection
[25] = wildtype Huh7.5, HCV-JFH1-ad MOI 0.1, 24 to 48 h post-infection
[26] = 1000 nM compound + 5000 nM lenalidomide, 4 h, Fig. 2d
[27] = 1000 nM compound + DMSO, 4 h, Fig. 2d
[28] = Hepatitis C virus, Huh7.5, read-out: antiviral IC50, NS3-V55A virus, average value reported, Huh7.5, MOI 0.1, treated 24 to 48 h post-infection
[29] = Hepatitis C virus, Huh7.5, read-out: antiviral IC50, NS3-V55A virus, single experiments, Huh7.5, MOI 0.1, treated 24 to 48 h post-infection
[30] = read-out: antiviral IC50, NS3-V55A virus, single experiments, Huh7.5, MOI 0.1, treated 24 to 48 h post-infection
[31] = Hepatitis C virus, Huh7.5, read-out: antiviral IC50, NS3-A156S virus, average value reported, Huh7.5, MOI 0.1, treated 24 to 48 h post-infection
[32] = Hepatitis C virus, Huh7.5, read-out: antiviral IC50, NS3-A156S virus, single experiments, Huh7.5, MOI 0.1, treated 24 to 48 h post-infection
[33] = read-out: antiviral IC50, NS3-A156S virus, single experiments, Huh7.5, MOI 0.1, treated 24 to 48 h post-infection
[34] = Hepatitis C virus, Huh7.5, read-out: antiviral IC50, wildtype virus, average value reported, Huh7.5, MOI 0.1, treated 24 to 48 h post-infection
[35] = Hepatitis C virus, Huh7.5, read-out: antiviral IC50, wildtype virus, single experiments, Huh7.5, MOI 0.1, treated 24 to 48 h post-infection
[36] = read-out: antiviral IC50, wildtype virus, single experiments, Huh7.5, MOI 0.1, treated 24 to 48 h post-infection

Row | Structure (SMILES) | IC50 [1, 14] [nM] | IC50 [1, 15] [nM] | IC50 [1, 16] | NS3-eGFP/mCherry ratio normalized to DMSO, average [2, 17] | NS3-eGFP/mCherry ratio normalized to DMSO, single experiments [2, 17] | NS3-eGFP/mCherry ratio normalized to DMSO, average [2, 18] | NS3-eGFP/mCherry ratio normalized to DMSO, single experiments [2, 18] | NS3-eGFP/mCherry ratio normalized to DMSO, average [2, 19] | NS3-eGFP/mCherry ratio normalized to DMSO, single experiments [2, 19] | DC50 [2, 20] [nM] | DC50 [2, 21] | EC50 [3] [nM] | CC50 at 24 h [4, 22] [nM] | CC50 at 24 h [4, 23] [nM] | relative NS3 levels (normalized to GAPDH), CRBN-/- cells, average [5, 24] [%] | relative NS3 levels (normalized to GAPDH), wildtype cells, average [5, 25] [%] | degradation of HCV NS3 in the transient assay (in words) ([2]; 4 h) | binding to CRBN (in words) [6] | NS3-eGFP/mCherry ratio normalized to DMSO, average [2, 26] | NS3-eGFP/mCherry ratio normalized to DMSO, single experiments [2, 26] | also measured
1 | CCC[C@H](NC(=O)[C@@H]1[C@H]2CCC[C@H]2CN1C(=O)[C@@H](NC(=O)[C@@H](NC(=O)c1cnc(C(=O)NCCCCCCNc2cccc3c2CN(C2CCC(=O)NC2=O)C3=O)cn1)C1CCCCC1)C(C)(C)C)C(=O)C(=O)NC1CC1 (stereo partly drawn) [DGY-03-081] | 3070 | 3300 | 2840 nM | 0.71 | 0.72 and 0.71 | 0.84 | 0.85 and 0.83 | 0.65 | 0.65 and 0.64 | 669 | 642 nM and 695 nM | 576 | > 40000 | > 40000 | 101 | 50 |  |  |  |  | 
2 | CCC[C@H](NC(=O)[C@@H]1[C@H]2CCC[C@H]2CN1C(=O)[C@@H](NC(=O)[C@@H](NC(=O)c1cnc(C(=O)NCCOCCOCCNc2cccc3c2C(=O)N(C2CCC(=O)N(C)C2=O)C3=O)cn1)C1CCCCC1)C(C)(C)C)C(=O)C(=O)NC1CC1 (stereo partly drawn) [DGY-04-035-BUMP] |  |  |  | 0.98 | 0.98 and 0.99 | 0.98 | 1.00 and 0.97 | 0.98 | 0.98 and 0.99 |  |  |  | > 40000 | > 40000 |  |  | neither compound induced degradation of HCV NS3 | Neither DGY-04-035-BUMP nor DGY-08-097-BUMP exhibit detectable binding to CRBN; also recorded: loss of CRBN-binding |  |  | 
3 | CCC[C@H](NC(=O)[C@@H]1[C@H]2CCC[C@H]2CN1C(=O)[C@@H](NC(=O)[C@@H](NC(=O)c1cnc(C(=O)NCCOCCOCCOc2cc3c4c(cccc4c2)C(=O)N(C2CCC(=O)N(C)C2=O)C3=O)cn1)C1CCCCC1)C(C)(C)C)C(=O)C(=O)NC1CC1 (stereo partly drawn) [DGY-08-097-BUMP] |  |  |  |  |  |  |  |  |  |  |  |  | > 40000 | > 40000 |  |  | neither compound induced degradation of HCV NS3 | Neither DGY-04-035-BUMP nor DGY-08-097-BUMP exhibit detectable binding to CRBN; also recorded: loss of CRBN-binding | 0.96 | 0.92 and 1.00 | change of HCV NS3 abundance vs DMSO (in words) [7]: No significant degradation of HCV NS3 or any other cellular protein; also recorded: unaffected; NS3-eGFP/mCherry ratio normalized to DMSO, average [2, 27]: 0.92; NS3-eGFP/mCherry ratio normalized to DMSO, single experiments [2, 27]: 0.92
4 | CCC[C@H](NC(=O)[C@@H]1[C@H]2CCC[C@H]2CN1C(=O)[C@@H](NC(=O)[C@@H](NC(=O)c1cnccn1)C1CCCCC1)C(C)(C)C)C(=O)C(=O)NC1CC1 [telaprevir, reference compound] | 132 |  | 114 nM and 91 nM and 86 nM and 236 nM |  |  |  |  |  |  |  |  |  | 28000 | 32000 |  |  |  |  |  |  | IC50 [8, 28]: 288 nM; IC50 [8, 29]: 190 nM; change in antiviral potency, NS3-V55A vs wildtype ([8]; ratio of IC50 values): 3 fold; IC50 [8, 30]: 304 nM and 372 nM; IC50 [9, 31]: 949 nM; IC50 [9, 32]: 756 nM; change in antiviral potency, NS3-A156S vs wildtype [9]: 10 fold; IC50 [9, 33]: 1140 nM; CC50 [10]: > 40000 nM and 24000 nM; IC50 [11, 34]: 98 nM; IC50 [11, 35]: 110 nM; IC50 [11, 36]: 72 nM and 111 nM
5 | CCC[C@H](NC(=O)[C@@H]1[C@H]2CCC[C@H]2CN1C(=O)[C@@H](NC(=O)[C@@H](NC(=O)c1cnc(C(=O)NCCOCCOCCNc2cccc3c2C(=O)N(C2CCC(=O)NC2=O)C3=O)cn1)C1CCCCC1)C(C)(C)C)C(=O)C(=O)NC1CC1 (stereo partly drawn) [DGY-04-035] |  | 2160 | 2650 nM and 3950 nM | 0.66 | 0.67 and 0.64 | 0.86 | 0.87 and 0.85 | 0.54 | 0.54 and 0.53 | 489 | 444 nM and 438 nM and 379 nM and 650 nM and 532 nM | 641 | > 40000 | > 40000 | 87 | 48 |  |  |  |  | relative NS3 levels (normalized to GAPDH), CRBN-/- cells, single experiments [5, 24]: 107% and 74% and 80%; relative NS3 levels (normalized to GAPDH), wildtype cells, single experiments [5, 25]: 54% and 46% and 44%
6 | CCC[C@H](NC(=O)[C@@H]1[C@H]2CCC[C@H]2CN1C(=O)[C@@H](NC(=O)[C@@H](NC(=O)c1cnc(C(=O)NCCOCCOCCOc2cc3c4c(cccc4c2)C(=O)N(C2CCC(=O)NC2=O)C3=O)cn1)C1CCCCC1)C(C)(C)C)C(=O)C(=O)NC1CC1 (stereo partly drawn) [DGY-08-097] | 748 |  | 706 nM and 627 nM and 425 nM and 1230 nM |  |  |  |  |  |  | 50 | 51 nM and 49 nM and 46 nM and 54 nM | 703 | > 40000 | > 40000 |  |  |  |  | 0.60 | 0.62 and 0.58 | degradation of IMiDs neo-substrates IKZF1 and IKZF3 [12]: no degradation; other proteins significantly affected (of ~8700 quantified) [12]: no other protein of the ~8700 quantified was observed to be significantly affected; IC50 [8, 28]: 508 nM; IC50 [8, 29]: 403 nM; IC50 [8, 30]: 380 nM and 742 nM; IC50 [9, 31]: 1560 nM; IC50 [9, 32]: 2020 nM; change in antiviral potency, NS3-A156S vs wildtype [9]: 3 fold; IC50 [9, 33]: 1110 nM; NS3-eGFP/mCherry ratio normalized to DMSO, average [2, 27]: 0.24; NS3-eGFP/mCherry ratio normalized to DMSO, single experiments [2, 27]: 0.23 and 0.25; concentrations at which a hook effect was observed in the transient NS3 degradation assay ([2]; 4 h): above 1000 nM; stabilization of CRBN in cellular thermal shift assay [13]: concentration-dependent stabilization of CRBN; IC50 [11, 34]: 558 nM; IC50 [11, 35]: 630 nM; IC50 [11, 36]: 417 nM and 627 nM
